Target: neurotensin receptor 1 (NTR1) (Homo sapiens (Human), UniProt P30989)
Test: NTR1 dose response, high-content imaging beta-arrestin-GFP assay in NTR1-U2OS cells
Format: cell-based
Conditions: read-out: EC50

Sequence of neurotensin receptor 1 (NTR1) (P30989 whole entry, species assumed): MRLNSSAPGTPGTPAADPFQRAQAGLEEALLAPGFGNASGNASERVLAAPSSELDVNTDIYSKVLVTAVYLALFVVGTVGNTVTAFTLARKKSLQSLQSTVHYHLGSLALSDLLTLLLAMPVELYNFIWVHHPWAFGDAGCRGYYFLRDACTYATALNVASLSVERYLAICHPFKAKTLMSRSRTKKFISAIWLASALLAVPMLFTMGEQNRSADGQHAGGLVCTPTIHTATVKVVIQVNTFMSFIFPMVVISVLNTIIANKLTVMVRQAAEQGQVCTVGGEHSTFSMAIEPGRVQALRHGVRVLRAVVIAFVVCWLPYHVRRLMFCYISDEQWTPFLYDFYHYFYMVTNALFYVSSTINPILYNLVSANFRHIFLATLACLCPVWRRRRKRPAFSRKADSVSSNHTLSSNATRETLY

Row | Structure (SMILES) | EC50
1 | COc1ccccc1C1CCN(c2nc(C3CC3)nc(C)c2CC(=O)N(C)C)CC1 [Example 157, 2-{2-cyclopropyl-4-[4-(2-methoxy-phenyl)-piperidin-1-yl]-6-methyl-pyrimidin-5-yl}-N,N-dimethyl-acetamide] | > 10000 nM
2 | CCCN(C)C(=O)Cc1c(C)nc(C2CC2)nc1N1CCC(c2ccccc2OC)CC1 [Example 158, 2-{2-cyclopropyl-4-[4-(2-methoxy-phenyl)-piperidin-1-yl]-6-methyl-pyrimidin-5-yl}-N-methyl-N-propyl-acetamide] | > 10000 nM
3 | COc1ccccc1C1CCN(c2nc(C3CC3)nc(C)c2CC(=O)Nc2ccccc2)CC1 [Example 160] | > 10000 nM
4 | COC(=O)Cc1c(C)nc(N2CCC(c3ccccc3OC)CC2)nc1C1CC1 [Example 161, {4-cyclopropyl-2-[4-(2-methoxy-phenyl)-piperidin-1-yl]-6-methyl-pyrimidin-5-yl}-acetic acid methyl ester] | > 10000 nM
5 | CCCN(C)C(=O)Cc1c(C)nc(N2CCC(c3ccccc3OC)CC2)nc1C1CC1 [Example 162, 2-{4-cyclopropyl-2-[4-(2-methoxy-phenyl)-piperidin-1-yl]-6-methyl-pyrimidin-5-yl}-N-methyl-N-propyl-acetamide] | > 10000 nM
6 | COc1ccccc1C1CCN(c2nc(C)c(CC(=O)N(C)CCO)c(C3CC3)n2)CC1 [Example 163, 2-{4-cyclopropyl-2-[4-(2-methoxy-phenyl)-piperidin-1-yl]-6-methyl-pyrimidin-5-yl}-N-(2-hydroxy-ethyl)-N-methyl-acetamide] | > 10000 nM
7 | CCCN(C)C(=O)Cc1cnc(C2CC2)nc1N1CCC(c2ccccc2OC)CC1 [Example 165, 2-{2-cyclopropyl-4-[4-(2-methoxy-phenyl)-piperidin-1-yl]-pyrimidin-5-yl}-N-methyl-N-propyl-acetamide] | > 10000 nM
8 | COc1ccccc1C1CCN(c2nc(C3CC3)nc3ccc(N(C)CCO)c(F)c23)CC1 [Example 167, 2-({2-Cyclopropyl-5-fluoro-4-[4-(2-methoxy-phenyl)-piperidin-1-yl]-quinazolin-6-yl}-methyl-amino)-ethanol] | 500 to 2000 nM
9 | COc1ccccc1C1CCN(c2nc(C3CC3)nc3cccc(N(C)CCO)c23)CC1 [Example 168, 2-({2-Cyclopropyl-4-[4-(2-methoxy-phenyl)-piperidin-1-yl]-quinazolin-5-yl}-methyl-amino)-ethanol] | > 10000 nM
10 | COc1ccccc1C1CCN(c2nc(C3CC3)nc3cc(N(C)CCO)ccc23)CC1 [Example 169, 2-({2-Cyclopropyl-4-[4-(2-methoxy-phenyl)-piperidin-1-yl]-quinazolin-7-yl}-methyl-amino)-ethanol] | 2000 to 10000 nM
11 | CCCN(C)c1ccc2c(N3CCC(c4ccccc4OC)CC3)nc(C3CC3)nc2c1 [Example 170, {2-Cyclopropyl-4-[4-(2-methoxy-phenyl)-piperidin-1-yl]-quinazolin-7-yl}-methyl-propyl-amine] | 2000 to 10000 nM
12 | COc1ccccc1C1CCN(c2nc(C3(F)CC3)nc3cc(F)c(N(C)CCO)cc23)CC1 [Example 171] | < 500 nM
13 | COc1ccccc1C1CCN(c2nc(C3(F)CC3)nc3cc(Cl)c(N(C)CCO)cc23)CC1 [Example 172] | 500 to 2000 nM
14 | COc1ccccc1C1CCN(c2nc(C3CC3)nc3ccc(N4CC[C@H](O)C4)cc23)CC1 [Example 173, (S)-1-(2-cyclopropyl-4-(4-(2-methoxyphenyl)piperidin-1-yl)quinazolin-6-yl)pyrrolidin-3-ol] | 500 to 2000 nM
15 | COc1ccccc1C1CCN(c2nc(C3CC3)nc3ccc(N4CC[C@H](OC)C4)cc23)CC1 [Example 174, (S)-2-cyclopropyl-4-(4-(2-methoxyphenyl)piperidin-1-yl)-6-(3-methoxypyrrolidin-1-yl)quinazoline] | 500 to 2000 nM
16 | COc1ccccc1C1CCN(c2nc(C3CC3)nc3ccc(N4CC[C@@H](O)C4)cc23)CC1 [Example 175, (R)-1-{2-cyclopropyl-4-[4-(2-methoxy-phenyl)-piperidin-1-yl]-quinazolin-6-yl}-pyrrolidin-3-ol] | 500 to 2000 nM
17 | COc1ccccc1C1CCN(c2nc(C3CC3)nc3ccc(N4CC[C@@H](OC)C4)cc23)CC1 [Example 176, (R)-2-cyclopropyl-4-[4-(2-methoxy-phenyl)-piperidin-1-yl]-6-(3-methoxy-pyrrolidin-1-yl)-quinazoline] | 500 to 2000 nM
18 | COc1ccccc1C1CCN(c2nc(C3(F)CC3)nc3ccc(N4CC[C@H](O)C4)cc23)CC1 [Example 177, (S)-1-{2-(1-Fluoro-cyclopropyl)-4-[4-(2-methoxy-phenyl)-piperidin-1-yl]-quinazolin-6-yl}-pyrrolidin-3-ol] | 500 to 2000 nM
19 | COc1ccccc1C1CCN(c2nc(C3(F)CC3)nc3ccc(N4CC[C@@H](O)C4)cc23)CC1 [Example 178, (R)-1-{2-(1-Fluoro-cyclopropyl)-4-[4-(2-methoxy-phenyl)-piperidin-1-yl]-quinazolin-6-yl}-pyrrolidin-3-ol] | 500 to 2000 nM
20 | COc1ccccc1C1CCN(c2nc(C3CC3)nc3ccc(N(C)CC(=O)O)cc23)CC1 [Example 179, ({2-Cyclopropyl-4-[4-(2-methoxy-phenyl)-piperidin-1-yl]-quinazolin-6-yl}-methyl-amino)-acetic acid] | < 500 nM
21 | COc1ccccc1C1CCN(c2nc(C3(F)CC3)nc3ccc(N(C)CC(=O)O)cc23)CC1 [Example 180, 2-((2-(1-fluorocyclopropyl)-4-(4-(2-methoxyphenyl)piperidin-1-yl)quinazolin-6-yl)(methyl)amino)acetic acid] | 2000 to 10000 nM
22 | COc1ccccc1C1CCN(c2nc(C3(F)CCC3)nc3c(Cl)cc(N(C)CCO)cc23)CC1 [Example 181, 2-((8-chloro-2-(1-fluorocyclobutyl)-4-(4-(2-methoxyphenyl)piperidin-1-yl)quinazolin-6-yl)(methyl)amino)ethanol] | 500 to 2000 nM
23 | COc1ccccc1C1CCN(c2nc(C3(F)CCC3)nc3c(Cl)cc(N4CC[C@@H](O)C4)cc23)CC1 [Example 182] | 2000 to 10000 nM
24 | COc1ccccc1C1CCN(c2nc(C3(F)CCC3)nc3c(Cl)cc(N4CC[C@H](O)C4)cc23)CC1 [Example 183] | 2000 to 10000 nM
25 | COC1CCCC1N1CCN(c2nc(C3CC3)nc3ccc(N(C)CCO)cc23)CC1 (centres unmarked) [Example 184, 2-({2-Cyclopropyl-4-[4-(2-methoxy-cyclopentyl)-piperazin-1-yl]-quinazolin-6-yl}-methyl-amino)-ethanol] | > 10000 nM
26 | CCCN(C)c1ccc2nc(C3CC3)nc(N3CCN(C4CCCC4OC)CC3)c2c1 (centres unmarked) [Example 185, 2-cyclopropyl-4-(4-(2-methoxycyclopentyl)piperazin-1-yl)-N-methyl-N-propylquinazolin-6-amine] | > 10000 nM
27 | COC1CCCCC1C1CCN(c2nc(C3(F)CC3)nc3ccc(N(C)CCO)cc23)CC1 (centres unmarked) [Example 189, 2-({2-(1-Fluoro-cyclopropyl)-4-[4-(2-methoxy-cyclohexyl)-piperidin-1-yl]-quinazolin-6-yl}-methyl-amino)-ethanol] | > 10000 nM
28 | COc1ccsc1C1CCN(c2nc(C3CC3)nc3ccc(N(C)CCO)cc23)CC1 [Example 190, 2-({2-Cyclopropyl-4-[4-(3-methoxy-thiophen-2-yl)-piperidin-1-yl]-quinazolin-6-yl}-methyl-amino)-ethanol] | 2000 to 10000 nM
29 | COc1ccccc1C1CCN(c2nc(C#CC3CC3)nc3ccc(N(C)CCO)cc23)CC1 [Example 191, 2-({2-Cyclopropylethynyl-4-[4-(2-methoxy-phenyl)-piperidin-1-yl]-quinazolin-6-yl}-methyl-amino)-ethanol] | 2000 to 10000 nM
